Where two headings read alike, the source gives them in different places.
Experiments:
IGF-1R [1] = test: NE-mediated IGF-1R activation in lung epithelial cells; format: cell-based, human; conditions: NE-treated lung epithelial cells
Description: (§1) Cells were washed twice with ice-cold PBS, and then lysed with a modified RIPA buffer [50 mM Tris-HCl (pH 7.4), 150 mM NaCl, 1 mM EDTA, 0.25% sodium deoxycholate, 1% Triton X-100, a protease inhibitor cocktail, 100 mM NaF, 1 mM Na3VO4]. Lysates were centrifuged at 13,000 rpm for 15 to 20 minutes to harvest supernatants, and then the collected proteins were quantified using the BCA method. Equivalent amounts of the proteins were subjected to electrophoresis using 8-15% SDS-PAGE, and then transferred to a PVDF membrane. The membrane was washed with TBST (0.01% Tween-20-containing Tris-buffered saline), and blocked in a blocking buffer (diluted in TBST to contain 5% skim milk) at room temperature for 1 hour. The membrane was incubated with primary antibodies diluted in 3% BSA-containing TBST at 4° C. for 12 hours, and washed with TBST for over 1 hour. The membrane was incubated with secondary antibodies diluted in TBST containing 3% skim milk at room temperature for 1 to 2 hours, and washed with TBST for over 1 hour. The membrane was reacted in an ECL solution, and band visualization was carried out by exposure to an X-ray film.

IGF2 [2] = test: NE-mediated IGF2 secretion in lung epithelial cells; format: cell-based, human; conditions: NE-treated lung epithelial cells
Description: ELISA for IGF1, IGF2 and NE were performed using commercially available ELISA kits (R&D Systems, DSL or Abnova) according to the manufacturer's instruction.

IGF-1R [3] = test: IGF-1R phosphorylation on change of intracellular Ca2+ (Western blot); format: cell-based, human; conditions: HBE/p53i cells
Description: as §1

IGF2 [4] = test: IGF2 secretion in GFP-IGF2-overexpressing BEAS-2B cells; format: cell-based, human
IGF-1R [5] = test: NNK-induced IGF-1R activation in lung epithelial / lung cancer cells (Western blot); format: cell-based, human; conditions: NNK-treated BEAS-2B cells
Description: as §1

lung epithelial cells [6] = test: NNK-induced viability, colony formation and foci formation of lung epithelial cells; format: cell-based, human
Description: (§2) Cells (2-3×10^3 cells) were seeded into 96-well plates, treated with a test drug diluted with a medium, and then incubated for 3 days. After incubation, the cells were treated with an MTT solution to have a final concentration of 200-500 μg/ml and incubated for 2 to 4 hours. After discarding the medium, produced formazan was dissolved in DMSO, and then the absorbance at 570 nm was measured. Alternatively, cells were seeded into 12- or 24-well plates, collected after a predetermined time after treatment with a test drug, and then counted using a hemocytometer. 100 to 300 cells were seeded into 6- or 12-well plates and then treated with NNK or NNK and a test drug for 2 to 3 weeks. After 2 to 3 weeks, Colony formation was observed and the colonies were counted after stained staining with crystal violet. Before the experiment, low-melting agar (final concentration of agar: 1%) was diluted with a medium, and then 1 ml of the resulting solution was added and solidified in each 24-well plate, resulting in bottom agar. 2,000 to 5,000 cells were mixed with the low melting agar (final concentration of agar: 0.35-0.4%), 500 μl of the resulting mixture was added onto each bottom agar. After solidification of the agar, the cells were treated with NNK or a test drug, which was diluted with a medium. After 2 to 4 weeks after treatment, colonies were stained with an MTT solution, observed, and then counted. Lung epithelial cells at 90 to 95% confluency were treated with a carcinogen diluted with a growth factor-free medium, or a carcinogen and a test drug. After 2 to 3 weeks, foci formation was observed.

A/J mice = test: NNK lung carcinogenesis animal model; format: in vivo, mouse; conditions: NNK 3 μmol oral twice a week, test drug oral 6 times a week, 20 weeks
Description: NNK (3 μmol) was orally administered to A/J mice twice a week, and a test drug was orally administered thereto 6 times a week for a total of 20 weeks. Afterward, the mice were sacrificed, lungs were extracted from the mice, and the produced tumors were counted. Lung paraffin blocks were prepared, four or more tissue sections were prepared at regular intervals, and then stained by H&E staining as described below. Numbers and sizes of the tumors were measured to calculate volumes of the tumors. Paraffin blocks were sliced to have a thickness of 4 μm, placed onto silane-coated slides, and then dried. The dried slide glasses were deparaffinized overnight in a 65° C. dry oven. Afterward, the slide glasses were dipped in xylene for 5 minutes twice. After deparaffinization, the slide glasses were sequentially hydrated with 100%, 95%, 70%, and 50% ethanol, stained with a Harris hematoxylin solution for 1.5 minutes, dipped in a 1% HCl alcohol solution and ammonia, and then counterstained with an eosin solution for 30 seconds. Afterward, the resulting tissue sections were sequentially dehydrated using 95% and 100% ethanol, transparentized with xylene, and then mounted. Images were captured using a microscope.

lung epithelial cells [7] = test: Transformation of lung epithelial cells by stress hormones; format: cell-based, human; conditions: treatment with the stress hormone alone
Description: as §2

lung epithelial cells [8] = test: NE-induced viability and colony formation of lung epithelial cells; format: cell-based, human; conditions: NE-treated lung epithelial cells
Description: as §2, with “100 to 300 cells were seeded into 6- or 12-well plates and then treated with NNK or NNK and a test drug for 2 to 3 weeks.” left out, “counted.” for “counted. Lung epithelial cells at 90 to 95% confluency were treated with a carcinogen diluted with a growth factor-free medium, or a carcinogen and a test drug. After 2 to 3 weeks, foci formation was observed.”

With `CC(=O)OCOC(=O)CN(CC(=O)OCOC(C)=O)c1ccccc1OCCOc1ccccc1N(CC(=O)OCOC(C)=O)CC(=O)OCOC(C)=O` [BAPTA-AM, 1,2-bis(2-aminophenoxy)ethane-N,N,N′,N′-tetraacetic acid tetrakis(acetoxymethyl ester)] the “NE-mediated IGF-1R activation” value (IGF-1R [1]) was “inhibited”, the “NE-mediated IGF2 secretion” value (IGF2 [2]) was “inhibited” and the IGF-1R phosphorylation (IGF-1R [3]) was “inhibited”. For the same compound, the “NNK-increased IGF2 secretion” value (IGF2 [4]; GFP-IGF2-overexpressing BEAS-2B, with NNK) was “inhibited”.
With `O=C(O)CN(CCOCCOCCN(CC(=O)O)CC(=O)O)CC(=O)O` [EGTA, ethylene glycol tetraacetic acid] the “NE-mediated IGF-1R activation” value (IGF-1R [1]) was “inhibited”, the “NE-mediated IGF2 secretion” value (IGF2 [2]) was “inhibited” and the IGF-1R phosphorylation (IGF-1R [3]) was “inhibited”. The “NNK-increased IGF2 secretion” value (IGF2 [4]) was “inhibited”.
For `C[C@H](CS)C(=O)N1CCC[C@H]1C(=O)O` [captopril], the “NNK-mediated IGF-1R activation” value (IGF-1R [5]) was “inhibited”, the “NNK-induced promotion of cell viability” value (lung epithelial cells [6]) was “suppressed” and the “NNK-induced promotion of colony formation” value (lung epithelial cells [6]) was “suppressed”. For the same compound, the “NNK-induced promotion of foci formation” value (lung epithelial cells [6]) was “suppressed” and the NNK-induced tumorigenesis (A/J mice) was “significantly suppressed”.
`C[C@]12CCC(=O)C=C1CC[C@@H]1[C@@H]2[C@@H](O)C[C@@]2(C)[C@H]1CC[C@]2(O)C(=O)CO` [cortisol] was tested, and the “transformation of lung epithelial cells (viability, colony formation, foci formation)” value (lung epithelial cells [7]) was “not by cortisol”.
In the case of `CNC[C@H](O)c1ccc(O)c(O)c1` [epinephrine], the “transformation of lung epithelial cells (viability, colony formation, foci formation)” value (lung epithelial cells [7]) was “induced”.
In the case of `C[C@H](CCC(=O)O)C[C@H](C)C[C@H](C)C(=O)/C=C(\O)[C@H](C)C[C@H](C)C/C=C/[C@@H](C)[C@@H](O)[C@@H](C)[C@@H](O)C[C@@H]1CC[C@@](C)([C@H]2CC[C@@](C)([C@@H](C)O)O2)O1` [ionomycin], the IGF-1R phosphorylation (IGF-1R [3]) was “increased”.
For `C[C@]1(O)C[C@@H](c2nc(-c3ccc4ccc(-c5ccccc5)nc4c3)c3c(N)nccn32)C1` [linsitinib], the “NE-induced increase in colony formation of lung epithelial cells” value (lung epithelial cells [8]) was “significantly suppressed” and the “NE-induced increase in viability of lung epithelial cells” value (lung epithelial cells [8]) was “significantly suppressed”.
With `CCCCc1nc(Cl)c(CO)n1Cc1ccc(-c2ccccc2-c2nn[nH]n2)cc1` [losartan] the “NNK-mediated IGF-1R activation” value (IGF-1R [5]) was “inhibited”, the “NNK-induced promotion of cell viability” value (lung epithelial cells [6]) was “suppressed” and the “NNK-induced promotion of colony formation” value (lung epithelial cells [6]) was “suppressed”. The “NNK-induced promotion of foci formation” value (lung epithelial cells [6]) was “suppressed” and the NNK-induced tumorigenesis (A/J mice) was “significantly suppressed”.
In the case of `COC(=O)C1=C(C)NC(C)=C(C(=O)OC)C1c1ccccc1[N+](=O)[O-]` [nifedipine], the “NE-mediated IGF-1R activation” value (IGF-1R [1]) was “inhibited” and the “NE-mediated IGF2 secretion” value (IGF2 [2]) was “inhibited”.
With `C/C=C(/C)C(=O)O[C@H]1C(C)=C2[C@H]([C@@H]1OC(=O)CCCCCCC)[C@@](C)(OC(C)=O)C[C@H](OC(=O)CCC)[C@@]1(O)[C@H]2OC(=O)[C@@]1(C)O` [thapsigargin] the IGF-1R phosphorylation (IGF-1R [3]) was “increased”.
